Measured values: ChEMBL document CHEMBL3400096, “6,7-Dihydrobenzo[f]benzo[4,5]imidazo[1,2-d][1,4]oxazepine derivatives as selective inhibitors of PI3Kα” (Bioorg Med Chem, 2015)

How the values were obtained:
A549 = assay: Antiproliferative activity against human A549 cells assessed as inhibition of absorbance after 72 hrs by MTT assay; type: functional, cell-based; conditions: A549, 72 h
[1] = Antiproliferative activity against human HuH7 cells assessed as inhibition of absorbance after 72 hrs by MTT assay; type: functional, cell-based; conditions: Huh-7, 72 h
[2] = Antiproliferative activity against human HL60 cells assessed as inhibition of absorbance after 72 hrs by MTT assay; type: functional, cell-based; conditions: HL-60, 72 h
[3] = Antiproliferative activity against human HCT116 cells assessed as inhibition of absorbance after 72 hrs by MTT assay; type: functional, cell-based; conditions: HCT-116, 72 h
[4] = target: Phosphatidylinositol 4,5-bisphosphate 3-kinase catalytic subunit beta isoform (Homo sapiens, UniProt P42338); assay: Inhibition of recombinant PI3Kbeta (unknown origin) […] after 3 hrs incubation by competitive fluorescence polarization kinase activity assay
[5] = target: Phosphatidylinositol 4,5-bisphosphate 3-kinase catalytic subunit gamma isoform (Homo sapiens, UniProt P48736); assay: Inhibition of recombinant PI3Kgamma (unknown origin) using […] as substrate after 3 hrs incubation by competitive fluorescence polarization kinase activity assay
[6] = target: Phosphatidylinositol 4,5-bisphosphate 3-kinase catalytic subunit alpha isoform (Homo sapiens, UniProt P42336); assay: Inhibition of recombinant PI3Kalpha (unknown origin) using […] as substrate after 3 hrs incubation by competitive fluorescence polarization kinase activity assay
[7] = target: T1, Phosphatidylinositol 4,5-bisphosphate 3-kinase catalytic subunit delta isoform (Homo sapiens, UniProt O00329); assay: Inhibition of recombinant PI3Kdelta (unknown origin) using […] as substrate after 3 hrs incubation by competitive fluorescence polarization kinase activity assay
T1 sequence (O00329 whole entry): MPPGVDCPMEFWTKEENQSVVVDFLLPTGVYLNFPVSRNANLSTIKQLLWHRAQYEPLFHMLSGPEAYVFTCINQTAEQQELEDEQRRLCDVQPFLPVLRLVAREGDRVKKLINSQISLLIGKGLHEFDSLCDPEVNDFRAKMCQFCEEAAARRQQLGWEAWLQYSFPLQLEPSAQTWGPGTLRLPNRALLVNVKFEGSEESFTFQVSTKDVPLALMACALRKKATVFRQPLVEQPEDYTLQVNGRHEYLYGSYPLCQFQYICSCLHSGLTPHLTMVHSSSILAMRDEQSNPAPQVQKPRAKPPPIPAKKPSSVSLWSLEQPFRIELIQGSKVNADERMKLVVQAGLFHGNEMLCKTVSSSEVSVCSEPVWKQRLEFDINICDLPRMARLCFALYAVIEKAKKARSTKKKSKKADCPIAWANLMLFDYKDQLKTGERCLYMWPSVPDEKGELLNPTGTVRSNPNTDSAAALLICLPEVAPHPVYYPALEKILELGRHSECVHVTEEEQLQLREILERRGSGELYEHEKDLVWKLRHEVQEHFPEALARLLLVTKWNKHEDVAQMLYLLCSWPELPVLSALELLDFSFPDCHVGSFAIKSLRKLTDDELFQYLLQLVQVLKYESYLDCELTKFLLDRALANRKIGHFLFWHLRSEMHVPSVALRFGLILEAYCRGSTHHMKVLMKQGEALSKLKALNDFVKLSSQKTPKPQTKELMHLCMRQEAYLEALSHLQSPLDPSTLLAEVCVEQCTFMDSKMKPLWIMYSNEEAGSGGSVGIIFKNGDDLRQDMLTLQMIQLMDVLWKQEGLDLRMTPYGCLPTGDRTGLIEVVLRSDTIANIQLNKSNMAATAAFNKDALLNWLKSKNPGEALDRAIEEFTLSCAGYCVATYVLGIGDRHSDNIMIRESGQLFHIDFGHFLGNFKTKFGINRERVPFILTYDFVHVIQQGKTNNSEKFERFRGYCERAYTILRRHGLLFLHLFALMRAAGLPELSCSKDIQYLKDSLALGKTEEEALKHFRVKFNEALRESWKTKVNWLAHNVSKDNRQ

HCT-116 [8] = assay: Induction of apoptosis in human HCT116 cells assessed as early apoptotic cells at 2 uM after 24 hrs using annexin V/propidium iodide staining based flow cytometry (reference value: 1.93%); type: functional
HCT-116 [9] = assay: Induction of apoptosis in human HCT116 cells assessed as early apoptotic cells at 1 uM after 24 hrs using annexin V/propidium iodide staining based flow cytometry (reference value: 1.93%); type: functional
HCT-116 [10] = assay: Induction of apoptosis in human HCT116 cells assessed as early apoptotic cells at 0.5 uM after 24 hrs using annexin V/propidium iodide staining based flow cytometry (reference value: 1.93%); type: functional
HCT-116 [11] = assay: Induction of apoptosis in human HCT116 cells assessed as late apoptotic cells at 2 uM after 24 hrs using annexin V/propidium iodide staining based flow cytometry (reference value: 0.710%); type: functional
HCT-116 [12] = assay: Induction of apoptosis in human HCT116 cells assessed as late apoptotic cells at 1 uM after 24 hrs using annexin V/propidium iodide staining based flow cytometry (reference value: 0.710%); type: functional
HCT-116 [13] = assay: Induction of apoptosis in human HCT116 cells assessed as viable cells at 1 uM after 24 hrs using annexin V/propidium iodide staining based flow cytometry (reference value: 93.3%); type: functional; conditions: HCT-116, 24 h, read-out: Activity
HCT-116 [14] = assay: Induction of apoptosis in human HCT116 cells assessed as viable cells at 0.5 uM after 24 hrs using annexin V/propidium iodide staining based flow cytometry (reference value: 93.3%); type: functional; conditions: HCT-116, 24 h, read-out: Activity
HCT-116 [15] = assay: Induction of apoptosis in human HCT116 cells assessed as viable cells at 2 uM after 24 hrs using annexin V/propidium iodide staining based flow cytometry (reference value: 93.3%); type: functional; conditions: HCT-116, 24 h, read-out: Activity
HCT-116 [16] = assay: Induction of apoptosis in human HCT116 cells assessed as early apoptotic cells after 24 hrs using annexin V/propidium iodide staining based flow cytometry; type: functional, cell-based
HCT-116 [17] = assay: Induction of apoptosis in human HCT116 cells assessed as late apoptotic cells at 0.5 uM after 24 hrs using annexin V/propidium iodide staining based flow cytometry (reference value: 0.710%); type: functional
HCT-116 [18] = assay: Induction of apoptosis in human HCT116 cells assessed as necrotic cells at 1 uM after 24 hrs using annexin V/propidium iodide staining based flow cytometry (reference value: 4.09%); type: functional
HCT-116 [19] = assay: Induction of apoptosis in human HCT116 cells assessed as necrotic cells at 0.5 uM after 24 hrs using annexin V/propidium iodide staining based flow cytometry (reference value: 4.09%); type: functional
HCT-116 [20] = assay: Induction of apoptosis in human HCT116 cells assessed as necrotic cells at 2 uM after 24 hrs using annexin V/propidium iodide staining based flow cytometry (reference value: 4.09%); type: functional
HCT-116 [21] = assay: Induction of apoptosis in human HCT116 cells after 24 hrs using annexin V/propidium iodide staining based flow cytometry; type: functional, cell-based

Sequence of Phosphatidylinositol 4,5-bisphosphate 3-kinase catalytic subunit beta isoform (P42338 whole entry, canonical isoform): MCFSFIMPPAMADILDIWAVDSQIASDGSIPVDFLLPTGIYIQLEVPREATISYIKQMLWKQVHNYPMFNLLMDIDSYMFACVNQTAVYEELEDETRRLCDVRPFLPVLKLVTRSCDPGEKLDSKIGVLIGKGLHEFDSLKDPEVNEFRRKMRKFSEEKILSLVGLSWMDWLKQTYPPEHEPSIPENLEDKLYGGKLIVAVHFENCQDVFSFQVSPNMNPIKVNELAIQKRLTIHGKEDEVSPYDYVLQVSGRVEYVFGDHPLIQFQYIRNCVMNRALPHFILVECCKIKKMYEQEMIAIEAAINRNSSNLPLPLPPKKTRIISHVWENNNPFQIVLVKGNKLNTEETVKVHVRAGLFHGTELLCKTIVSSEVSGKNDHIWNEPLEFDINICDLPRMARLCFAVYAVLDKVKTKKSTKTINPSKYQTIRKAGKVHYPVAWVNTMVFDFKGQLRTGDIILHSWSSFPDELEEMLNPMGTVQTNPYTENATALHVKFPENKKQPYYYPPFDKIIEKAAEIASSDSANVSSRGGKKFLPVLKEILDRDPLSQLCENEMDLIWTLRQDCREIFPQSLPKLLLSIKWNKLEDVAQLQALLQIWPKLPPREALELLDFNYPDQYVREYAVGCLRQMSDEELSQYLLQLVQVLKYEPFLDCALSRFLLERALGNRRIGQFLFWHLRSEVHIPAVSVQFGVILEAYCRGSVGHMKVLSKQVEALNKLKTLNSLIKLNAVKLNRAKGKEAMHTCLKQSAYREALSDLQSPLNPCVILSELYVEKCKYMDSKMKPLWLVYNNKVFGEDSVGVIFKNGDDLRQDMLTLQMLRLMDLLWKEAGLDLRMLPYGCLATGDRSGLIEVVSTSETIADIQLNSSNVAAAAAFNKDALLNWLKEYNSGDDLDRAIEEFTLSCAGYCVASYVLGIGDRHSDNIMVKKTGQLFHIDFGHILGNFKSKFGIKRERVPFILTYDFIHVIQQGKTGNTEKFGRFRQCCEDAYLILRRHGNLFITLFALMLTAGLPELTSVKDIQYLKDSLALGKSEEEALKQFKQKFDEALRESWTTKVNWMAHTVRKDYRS
Sequence of Phosphatidylinositol 4,5-bisphosphate 3-kinase catalytic subunit gamma isoform (P48736 whole entry, canonical isoform): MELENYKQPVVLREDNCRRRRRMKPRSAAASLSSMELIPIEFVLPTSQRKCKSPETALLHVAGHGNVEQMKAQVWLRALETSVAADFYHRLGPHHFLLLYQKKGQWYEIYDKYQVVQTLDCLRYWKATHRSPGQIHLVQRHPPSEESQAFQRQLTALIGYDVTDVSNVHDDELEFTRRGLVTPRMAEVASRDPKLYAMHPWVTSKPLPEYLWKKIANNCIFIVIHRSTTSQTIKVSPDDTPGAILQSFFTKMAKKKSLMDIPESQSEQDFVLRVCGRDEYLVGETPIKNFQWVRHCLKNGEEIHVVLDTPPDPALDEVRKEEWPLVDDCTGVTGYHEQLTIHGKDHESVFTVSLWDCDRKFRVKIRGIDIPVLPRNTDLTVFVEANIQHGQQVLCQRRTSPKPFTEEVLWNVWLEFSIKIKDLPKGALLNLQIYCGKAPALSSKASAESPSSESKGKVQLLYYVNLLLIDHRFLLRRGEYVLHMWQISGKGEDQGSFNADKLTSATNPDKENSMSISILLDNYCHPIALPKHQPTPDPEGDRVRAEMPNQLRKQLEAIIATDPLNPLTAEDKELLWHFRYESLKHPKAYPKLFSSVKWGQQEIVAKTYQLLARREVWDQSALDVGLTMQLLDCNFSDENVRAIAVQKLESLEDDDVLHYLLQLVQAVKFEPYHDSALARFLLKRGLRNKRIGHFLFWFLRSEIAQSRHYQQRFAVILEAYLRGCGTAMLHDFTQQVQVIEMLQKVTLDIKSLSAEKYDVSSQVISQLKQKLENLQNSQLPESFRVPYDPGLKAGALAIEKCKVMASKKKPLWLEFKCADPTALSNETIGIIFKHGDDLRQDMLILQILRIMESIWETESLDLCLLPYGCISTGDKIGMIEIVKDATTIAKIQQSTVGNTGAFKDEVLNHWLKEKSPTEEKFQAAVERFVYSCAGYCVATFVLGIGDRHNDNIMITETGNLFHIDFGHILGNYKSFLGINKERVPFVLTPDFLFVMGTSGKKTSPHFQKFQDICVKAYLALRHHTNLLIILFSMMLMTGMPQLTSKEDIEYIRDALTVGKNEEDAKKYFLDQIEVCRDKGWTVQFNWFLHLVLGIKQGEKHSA
Sequence of Phosphatidylinositol 4,5-bisphosphate 3-kinase catalytic subunit alpha isoform (P42336 whole entry, canonical isoform): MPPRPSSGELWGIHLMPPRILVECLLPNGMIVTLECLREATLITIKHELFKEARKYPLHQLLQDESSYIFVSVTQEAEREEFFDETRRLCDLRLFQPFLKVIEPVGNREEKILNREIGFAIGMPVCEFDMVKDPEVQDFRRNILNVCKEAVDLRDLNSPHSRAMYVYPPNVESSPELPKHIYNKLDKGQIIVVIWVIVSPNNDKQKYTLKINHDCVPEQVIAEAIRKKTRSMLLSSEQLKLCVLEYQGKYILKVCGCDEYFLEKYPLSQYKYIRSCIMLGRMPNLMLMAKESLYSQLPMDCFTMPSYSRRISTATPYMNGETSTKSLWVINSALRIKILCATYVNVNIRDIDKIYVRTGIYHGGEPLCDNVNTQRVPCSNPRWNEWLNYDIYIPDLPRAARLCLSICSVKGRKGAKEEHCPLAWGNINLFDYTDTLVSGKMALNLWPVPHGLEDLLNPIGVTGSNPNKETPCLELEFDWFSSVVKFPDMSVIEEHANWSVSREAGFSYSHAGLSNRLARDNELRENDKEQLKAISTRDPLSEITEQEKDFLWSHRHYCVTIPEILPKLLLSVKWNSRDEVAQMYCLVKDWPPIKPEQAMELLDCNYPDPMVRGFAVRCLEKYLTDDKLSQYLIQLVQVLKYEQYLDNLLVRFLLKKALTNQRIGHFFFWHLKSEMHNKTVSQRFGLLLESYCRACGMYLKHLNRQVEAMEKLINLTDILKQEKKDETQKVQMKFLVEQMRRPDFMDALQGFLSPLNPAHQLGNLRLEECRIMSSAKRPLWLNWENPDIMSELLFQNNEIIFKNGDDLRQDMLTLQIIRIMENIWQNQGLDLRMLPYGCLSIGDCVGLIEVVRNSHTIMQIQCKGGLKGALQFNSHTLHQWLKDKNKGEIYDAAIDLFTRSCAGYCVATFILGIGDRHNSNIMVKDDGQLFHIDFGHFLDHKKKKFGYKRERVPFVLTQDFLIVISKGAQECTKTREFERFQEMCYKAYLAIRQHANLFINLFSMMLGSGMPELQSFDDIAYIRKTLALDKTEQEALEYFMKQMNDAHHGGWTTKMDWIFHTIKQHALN

SMILES | IC50 (A549) [µM] | IC50 [1] [µM] | IC50 [2] [µM] | IC50 [3] [µM] | IC50 [4] [µM] | IC50 [5] [µM] | IC50 [6] [µM] | IC50 [7] [µM] | further results
O=[N+]([O-])c1ccc2c(c1)nc1n2CCOc2ccccc2-1 | 122 | 105 | 94.5 | 91 | – | – | – | – | –
FC(F)(F)c1ccc2c(c1)nc1n2CCOc2ccccc2-1 | 11.5 | 18.7 | 10.1 | 13.8 | – | – | – | – | –
Fc1ccc2c(c1)nc1n2CCOc2ccccc2-1 | 89.4 | 91.9 | 82.5 | 76.5 | – | – | – | – | –
Cc1ccc2c(c1)-c1nc3cc(Br)ccc3n1CCO2 | 7.88 | 4.91 | 7.68 | 7.38 | 1.03 | 44.1 | 0.662 | 47.8 | –
Brc1ccc2c(c1)-c1nc3cc(Br)ccc3n1CCO2 | 0.48 | 0.51 | 0.47 | 0.47 | 0.284 | 19.5 | 0.092 | 39.8 | –
Cc1ccc2c(c1)nc1n2CCOc2ccc(Cl)cc2-1 | 61.6 | 63.4 | 57.4 | 58.2 | – | – | – | – | –
Cc1ccc2c(c1)-c1nc3ccccc3n1CCO2 | 148 | 144 | 122 | 112 | – | – | – | – | –
Cc1ccc2c(c1)-c1nc3cc(C)ccc3n1CCO2 | 0.61 | 0.67 | 0.58 | 0.59 | 0.394 | 17.1 | 0.118 | > 50 | –
FC(F)(F)c1ccc2c(c1)nc1n2CCOc2ccc(Cl)cc2-1 | 38.3 | 42.3 | 38 | 34.7 | – | – | – | – | –
O=[N+]([O-])c1ccc2c(c1)nc1n2CCOc2ccc(Cl)cc2-1 | 28.3 | 20.1 | 32.9 | 28.4 | – | – | – | – | –
c1ccc2c(c1)OCCn1c-2nc2ccccc21 | 133 | 124 | 108 | 101 | – | – | – | – | –
Cc1ccc2c(c1)nc1n2CCOc2ccccc2-1 | 83.7 | 82.6 | 75.2 | 73.5 | – | – | – | – | –
Cc1ccc2c(c1)nc1n2CCOc2ccc(Br)cc2-1 | 92.8 | 97.4 | 88.6 | 80.1 | – | – | – | – | –
Cc1ccc2c(c1)-c1nc3cc(F)ccc3n1CCO2 | 2.85 | 3.86 | 4.56 | 2.46 | 0.907 | 34.6 | 0.474 | > 50 | –
Brc1ccc2c(c1)nc1n2CCOc2ccccc2-1 | 49.5 | 58.5 | 44.3 | 43.9 | – | – | – | – | –
Clc1ccc2c(c1)-c1nc3cc(Br)ccc3n1CCO2 | 74.1 | 72.1 | 66.7 | 64.4 | – | – | – | – | –
O=c1cc(N2CCOCC2)oc2c(-c3ccccc3)cccc12 [LY-294002] | 82.3 | 67.2 | – | 51.8 | – | – | – | 1.36 | –
Fc1ccc2c(c1)nc1n2CCOc2ccc(Br)cc2-1 | 0.7 | 0.74 | 0.78 | 0.74 | 0.473 | 27.9 | 0.181 | > 50 | –
FC(F)(F)c1ccc2c(c1)nc1n2CCOc2ccc(Br)cc2-1 | 68.5 | 69.7 | 66.4 | 60.6 | – | – | – | – | –
Brc1ccc2c(c1)-c1nc3ccccc3n1CCO2 | 128 | 132 | 103 | 98.5 | – | – | – | – | –
Cc1ccc2c(c1)-c1nc3cc(Cl)ccc3n1CCO2 | 55.6 | 64.5 | 51.6 | 46.4 | – | – | – | – | –
Cc1ccc2c(c1)-c1nc3cc(C(F)(F)F)ccc3n1CCO2 | 4.95 | 6.47 | 4.86 | 4.45 | 1.21 | 41.6 | 0.685 | > 50 | –
Fc1ccc2c(c1)nc1n2CCOc2ccc(Cl)cc2-1 | 1.71 | 1.35 | 1.89 | 1.83 | 0.488 | 21.7 | 0.283 | 42.6 | –
O=[N+]([O-])c1ccc2c(c1)nc1n2CCOc2ccc(Br)cc2-1 | 22 | 24.3 | 17.5 | 19 | – | – | – | – | –
Clc1ccc2c(c1)-c1nc3ccccc3n1CCO2 | 108 | 92.5 | 91.3 | 87.7 | – | – | – | – | –
Clc1ccc2c(c1)nc1n2CCOc2ccccc2-1 | 77.3 | 80.3 | 73.8 | 71.5 | – | – | – | – | –
Cc1ccc2c(c1)-c1nc3cc([N+](=O)[O-])ccc3n1CCO2 | 0.11 | 0.12 | 0.1 | 0.08 | 0.184 | 9.44 | 0.016 | 34.6 | Activity (HCT-116 [8]): 27.3%; Activity (HCT-116 [9]): 17.8%; Activity (HCT-116 [10]): 15.1%; Activity (HCT-116 [11]): 5.98%; Activity (HCT-116 [12]): 4.13%; viability at 1 µM (HCT-116 [13]): 76.8%; viability at 0.5 µM (HCT-116 [14]): 79.5%; viability at 2 µM (HCT-116 [15]): 65.7%; Activity (HCT-116 [16]): Dose-dependent effect; Activity (HCT-116 [17]): 4.91%; Activity (HCT-116 [18]): 1.26%; Activity (HCT-116 [19]): 0.523%; Activity (HCT-116 [20]): 0.974%; Activity (HCT-116 [21]): Dose-dependent effect
Clc1ccc2c(c1)nc1n2CCOc2ccc(Br)cc2-1 | 0.17 | 0.18 | 0.15 | 0.12 | 0.188 | 11.8 | 0.031 | > 50 | –
Clc1ccc2c(c1)-c1nc3cc(Cl)ccc3n1CCO2 | 0.56 | 0.45 | 0.53 | 0.52 | 0.363 | 24.3 | 0.127 | > 50 | –
